In patent US12351556B2, “Pyridin-2(1H)one derivatives, their preparation and their use for the treatment of pain” (INSTITUT NATIONAL DE LA SANTE ET DE LA RECHERCHE MEDICALE …, priority 2019, dated 2025):
“Also recorded” adds a separate entry of the source.

Test system: inflammatory MA (face CFA model)
Test: Face Complete Freund's Adjuvant (CFA) model of inflammatory mechanical allodynia
Assay type: in vivo
Details: rat
Protocol: FIG. 1 illustrates the results obtained by the intracisternal application of compounds 19-24, 66-72 and 74-82. These compounds prevent face MA in a rat model of inflammatory pain (Complete Freund's Adjuvant (CFA), n=4-6 rats for each compound). For this assay, compounds (5 μL at 100 μM) or control vehicle were intra-cisternally administred 30 min before CFA injection.
Face Complete Freund's Adjuvant (CFA) Model.
CFA (Becton Dickinson) was dissolved in saline solution containing Tween 80 and paraffin oil and conserved at 4° C. For the behavioral tests, animals were briefly (<2 min) anesthetized using a mask with 2% isoflurane and received a subcutaneous injection of 25 μL of CFA (2.5 mg/kg) solution into the right vibrissa pad using a 27 Ga needle coupled to a 25 μL Hamilton syringe, as described previously. After injection, animals were awakened from anesthesia and placed in the behavioral experimental room, followed by a 120 min mechanical testing period.
Intracisternal Injection:
For investigating the effects of synthetized compounds upon mechanical allodynia, animals were briefly (<2 min) anesthetized using a mask with 2% isoflurane and received an intracisternal injection of 5 μL of compound (100 μM) or vehicle alone (saline+1% DMSO) using a 10 μL Hamilton syringe. After recovery (<2 min), rats were placed in an observation field (0.6×0.6 m square) under red light for a period test. 6-g von Frey filament was gently applied every 15 or 30 min onto the orofacial region by a first experimenter. The behavioral responses were observed and quantified by a second experimenter (see below).
Behavioral Responses to Normally Innocuous (6-g Von Frey Filament) Mechanical Stimulation.
The behavioral responses procedure was previously developed by Vos et al. 1994. A rat's response to mechanical stimulation consisted of one or more of the following elements: (1) detection, rat turn head toward stimulus; (2) withdrawal reaction, rat pull paw away or turn head away or pull it briskly backward when stimulation is applied (a withdrawal reaction is assumed to include a detection element preceding the head withdrawal and therefore consists of two responses elements); (3) escape/attack, rats avoid further contact with the stimulus, either passively by moving their bodies away from the stimulus, or actively by attacking the tip of the […]; (4) asymmetric grooming, rats display an uninterrupted series of at least three wash strokes directed to the stimulated area.
The in vivo efficacy of some compounds was evaluated on a rat model of inflammatory MA (face CFA model; Alba-Delgado et al J. Neurosci. 2018, 38, 10489-10504) (FIG. 1). After receiving a subcutaneous injection of 25 μL of CFA (2.5 mg/kg) into the right vibrissa pad, rats develop a MA that lasts days. […] In this model of inflammatory MA, MA was suppressed in compound 69 treated rats, in comparison to animals treated with vehicle (FIG. 2A).

Structure (SMILES): O=c1[nH]cc(Nc2ccccc2)cc1-c1ccccc1Br [Compound 69, 3-(2-Bromophenyl)-5-(phenylamino)pyridin-2(1H)-one]
- prevention of inflammatory MA (allodynic score), compared with skepinone (intracisternal 5 μL at 10 μM or 100 μM, 30 min before CFA, skepinone 60 μg/rat): completely suppressed; also recorded: much more potent than skepinone
- prevention of inflammatory MA (allodynic score, 6-g von Frey filament) (intracisternal 5 μL at 100 μM, 30 min before CFA): most active; also recorded: high activities; also recorded: potent preventing effect; also recorded: completely suppressed
- inhibition of inflammatory MA (intracisternal 5 μL at 100 μM, 30 min before CFA injection): 99%
